Measured values published in the supplement of paper PMC11061612.

Experiments:
Experiment in all cases: combination Emax (second highest fraction inhibited in the dose matrix, 72 h); higher = more inhibition; extreme values may be limits of the assay
ACHN (Kidney Carcinoma) = test system: ACHN (Kidney Carcinoma)
Procedure, shortened: (§1)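 Cell lines in DMEM/F12 or RPMI with 10% FBS were plated in 1536-well plates, held 24 hours at 37°C, 5% CO2, then given two-drug dose matrices for 72 hours (DMSO typically 0.2%). Viability was read by CellTiter-Glo 2.0 luminescence and scaled as inhibition from 0 (vehicle wells) to 1 (blank wells). Combination Emax is the second-highest inhibition in the matrix; Bliss excess is observed combination effect minus expected EA + EB − EA·EB, EA and EB being single-agent effects.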

[1] = test system: NCI-H727 (Other Solid Carcinomas)
Procedure, shortened: as §1

[2] = test system: NUGC-3 (Gastric Carcinoma)
Procedure, shortened: as §1

TK10 (Kidney Carcinoma) = test system: TK10 (Kidney Carcinoma)
Procedure, shortened: as §1

[3] = test system: VA-ES-BJ (Other Solid Carcinomas)
Procedure, shortened: as §1

[4] = test system: SW13 (Other Solid Carcinomas)
Procedure, shortened: as §1

[5] = test system: KMOE-2 (Acute Myeloid Leukemia)
Procedure, shortened: as §1

[6] = test system: MIA-PaCa-2 (Pancreatic Carcinoma)
Procedure, shortened: as §1

[7] = test system: NCI-H358 (Lung Adenocarcinoma)
Procedure, shortened: as §1

[8] = test system: C-4-I (Cervical Carcinoma)
Procedure, shortened: as §1

[9] = test system: OE19 (Esophageal Adenocarcinoma)
Procedure, shortened: as §1

EW-24 (Ewing's Sarcoma) = test system: EW-24 (Ewing's Sarcoma)
Procedure, shortened: as §1

[10] = test system: EFM-19 (Breast Carcinoma)
Procedure, shortened: as §1

[11] = test system: Caov-4 (Ovarian Carcinoma)
Procedure, shortened: as §1

UACC-62 (Melanoma) = test system: UACC-62 (Melanoma)
Procedure, shortened: as §1

NB69 (Neuroblastoma) = test system: NB69 (Neuroblastoma)
Procedure, shortened: as §1

[12] = test system: OSC-20 (Oral Cavity Carcinoma)
Procedure, shortened: as §1

PWR-1E (Non-Cancerous) = test system: PWR-1E (Non-Cancerous)
Procedure, shortened: as §1

[13] = test system: RF-48 (B-Cell Non-Hodgkin's Lymphoma)
Procedure, shortened: as §1

[14] = test system: KYSE-450 (Esophageal Squamous Cell Carcinoma)
Procedure, shortened: as §1

Row | SMILES | combination Emax (ACHN (Kidney Carcinoma)) | combination Emax [1] | combination Emax [2] | combination Emax (TK10 (Kidney Carcinoma)) | combination Emax [3] | combination Emax [4] | combination Emax [5] | combination Emax [6] | combination Emax [7] | combination Emax [8] | combination Emax [9] | combination Emax (EW-24 (Ewing's Sarcoma)) | combination Emax [10] | combination Emax [11] | combination Emax (UACC-62 (Melanoma)) | combination Emax (NB69 (Neuroblastoma)) | combination Emax [12] | combination Emax (PWR-1E (Non-Cancerous)) | combination Emax [13] | combination Emax [14]
1 | CC1(C)CCC(CN2CCN(c3ccc(C(=O)NS(=O)(=O)c4ccc(NCC5CCOCC5)c([N+](=O)[O-])c4)c(Oc4cnc5[nH]ccc5c4)c3)CC2)=C(c2ccc(Cl)cc2)C1 [Venetoclax] + CN(C)CCCOc1ccc(-c2ccc3ncc4c(c3c2)n(C2CCOCC2)c(=O)n4C)cn1 [AZD0156] (first compound max 1 µM, 7x7, partner max 1 µM) | 0.78 | 0.317 | 0.276 | 0.304 | 0.227 | 0.465 | 0.207 | 0.375 | 0.325 | 0.269 | 0.281 | 0.323 | 0.546 | 0.226 | 0.487 | 0.329 | 0.16 | 0.217 | 0.212 | 0.15
2 | CC1(C)CCC(CN2CCN(c3ccc(C(=O)NS(=O)(=O)c4ccc(NCC5CCOCC5)c([N+](=O)[O-])c4)c(Oc4cnc5[nH]ccc5c4)c3)CC2)=C(c2ccc(Cl)cc2)C1 [Venetoclax] + COc1cc(Nc2ncc3c(n2)-c2ccc(Cl)cc2C(c2c(F)cccc2OC)=NC3)ccc1C(=O)O [Alisertib] (first compound max 1 µM, 7x7, partner max 10 µM) | 0.698 | 0.326 | 0.436 | 0.35 | 0.505 | 0.599 | 0.928 | 0.583 | 0.442 | 0.804 | 0.785 | 0.428 | 0.557 | 0.447 | 0.314 | 0.915 | 0.345 | 0.859 | 0.59 | 0.437
3 | CC1(C)CCC(CN2CCN(c3ccc(C(=O)NS(=O)(=O)c4ccc(NCC5CCOCC5)c([N+](=O)[O-])c4)c(Oc4cnc5[nH]ccc5c4)c3)CC2)=C(c2ccc(Cl)cc2)C1 [Venetoclax] + C[C@@H]1COCCN1C2=NC(=NC(=C2)C3(CC3)[S@](=N)(=O)C)C4=C5C=CNC5=NC=C4 [AZD6738] (first compound max 1 µM, 7x7, partner max 10 µM) | 0.937 | 0.616 | 0.711 | 0.609 | 0.813 | 0.472 | 0.73 | 0.666 | 0.731 | 0.906 | 0.673 | 0.731 | 0.495 | 0.751 | 0.481 | 0.884 | 0.425 | 0.932 | 0.562 | 0.519
4 | CC1(C)CCC(CN2CCN(c3ccc(C(=O)NS(=O)(=O)c4ccc(NCC5CCOCC5)c([N+](=O)[O-])c4)c(Oc4cnc5[nH]ccc5c4)c3)CC2)=C(c2ccc(Cl)cc2)C1 [Venetoclax] + C[C@@H](Nc1cc(F)cc(F)c1)c1cc(C(=O)N(C)C)cc2c(=O)cc(N3CCOCC3)oc12 [AZD8186] (first compound max 1 µM, 7x7, partner max 3 µM) | 0.842 | 0.274 | 0.183 | 0.465 | 0.149 | 0.128 | 0.323 | 0.153 | 0.149 | 0.398 | 0.306 | 0.26 | 0.412 | 0.171 | 0.398 | 0.998 | 0.128 | 0.173 | 0.345 | 0.118
5 | CC1(C)CCC(CN2CCN(c3ccc(C(=O)NS(=O)(=O)c4ccc(NCC5CCOCC5)c([N+](=O)[O-])c4)c(Oc4cnc5[nH]ccc5c4)c3)CC2)=C(c2ccc(Cl)cc2)C1 [Venetoclax] + Cc1cc2ncnn2cc1Nc1ncc2c(n1)n(C1CCOCC1)c(=O)n2C [AZD7648] (first compound max 1 µM, 7x7, partner max 10 µM) | 0.725 | 0.25 | 0.409 | 0.281 | 0.233 | 0.302 | 0.427 | 0.269 | 0.293 | 0.222 | 0.281 | 0.38 | 0.417 | 0.263 | 0.221 | 0.523 | 0.205 | 0.164 | 0.321 | 0.14
6 | CC1(C)CCC(CN2CCN(c3ccc(C(=O)NS(=O)(=O)c4ccc(NCC5CCOCC5)c([N+](=O)[O-])c4)c(Oc4cnc5[nH]ccc5c4)c3)CC2)=C(c2ccc(Cl)cc2)C1 [Venetoclax] + Cn1cnc2c(F)c(Nc3ccc(Br)cc3Cl)c(C(=O)NOCCO)cc21 [Selumetinib] (first compound max 1 µM, 7x7, partner max 3 µM) | 0.688 | 0.601 | 0.392 | 0.322 | 0.123 | 0.317 | 0.992 | 0.403 | 0.343 | 0.385 | 0.182 | 0.154 | 0.232 | 0.364 | 0.767 | 0.919 | 0.172 | 0.0808 | 0.286 | 0.109
